Measured values from US7129234B2, “Phenyl heterocyclyl ethers” (Pfizer Inc., priority 2001, dated 2006).
Where a name gives a salt, the structure may show the parent alone.

melting point | Structure (SMILES)
198 to 203 °C | CNCc1cnccc1Oc1ccc(Cl)c(Cl)c1 (as salt: hydrochloride) [Example 103, [4-(3,4-Dichlorophenoxy)-3-pyridinyl]-N-methylmethanamine hydrochloride]
224 to 226 °C | CNCc1cc2ccccc2nc1Oc1ccc(Cl)c(Cl)c1 (as salt: HCl) [Example 104, [2-(3,4-Dichlorophenoxy)-3-quinolinyl]-N-methylmethanamine]
195 to 197 °C | CN(C)Cc1cccnc1Oc1ccc(Cl)cc1 (as salt: hydrochloride) [Example 106, [2-(4-Chlorophenoxy)-3-pyridinyl]-N,N-dimethylmethanamine hydrochloride]
198 to 203 °C | CNCc1cccnc1Oc1ccc(Cl)c(Cl)c1 (as salt: HCl) [Example 105, [2-(3,4-Dichlorophenoxy)-3-pyridinyl]-N-methylmethanamine]
